Assay results: patent US20090298956A1, “SELF-PRESERVED EMULSIONS” (priority 2008, published 2009)

Legend:
Assay type in all cases: cell-based
S. aureus = experiment: Preservative efficacy test (PET), log reduction of S. aureus; conditions: 24 hours, PET Screen International
Protocol: (§1) The antimicrobial activity and stability of the formulations shown in Table 1A below, which contain either 0.1 or 0.2 (w/v %) of Compound 1 were evaluated. Table 1A also contains an emulsion formulation (Formulation C) consisting of Cyclosporin and Compound 1. Table 1B constitutes overall standard preservative efficacy test (PET Screen International) results along with the results of a visual assessment of physical stability of the emulsions. […] Histograms for Formulation B, showing the initial particle size measurements as well as 60 weeks, can be seen in FIGS. 1A & 1B. Similarly, histograms for Formulation C, containing 0.05% Cyclosporin, showing the initial particle size measurements as well as at 62 weeks, can be seen in FIGS. 2A & 2B. […] The microbiological evaluation was conducted by determining the extent to which the emulsions reduced an initial population of about 10^6 cfu/mL microorganisms over time. The abbreviation “cfu” means colony forming unit. […] Overall EPA requirement of preservation in all tested formulations was achieved. The microbiology results are provided in greater detail in Table 1C, where the results of the evaluation of five microorganisms are provided.

P. aeruginosa = experiment: Preservative efficacy test (PET), log reduction of P. aeruginosa; conditions: 24 hours, PET Screen International
Protocol: as §1

E. coli = experiment: Preservative efficacy test (PET), log reduction of E. coli; conditions: 24 hours, PET Screen International
Protocol: as §1

C. albicans = experiment: Preservative efficacy test (PET), log reduction of C. albicans; conditions: 7 days, PET Screen International
Protocol: as §1

## sodium coco-diimonium chloride phosphate [Compound 1]
S. aureus; 0.1% Compound 1 emulsion
  log reductions: 5 log
S. aureus; 0.2% Compound 1 emulsion
  log reductions: 5 log
P. aeruginosa; 0.1% Compound 1 emulsion
  log reductions: 5 log
P. aeruginosa; 0.2% Compound 1 emulsion
  log reductions: 5 log
E. coli; 0.1% Compound 1 emulsion
  log reductions: 5 log
E. coli; 0.2% Compound 1 emulsion
  log reductions: 5 log
C. albicans; 0.1% Compound 1 emulsion
  log reductions: approximately 5 log
C. albicans; 0.2% Compound 1 emulsion
  log reductions: approximately 5 log
